According to patent US20030056788A1, “Partial liquid breathing of fluorocarbons” (priority 1991, published 2003):

How the values were obtained:
[1] = Surface and interfacial tensions and spreading coefficients of perfluorocarbons on saline; format: physicochemical; design: S(o on w) spreading coefficient: unit: mN/m; conditions: T = 25 C; for γo/w (interfacial tension oil/water) / S(o on w) spreading coefficient: on saline; for S(o on w) spreading coefficient: S = γw/a − (γw/o + γo/a)
Source text: The ability of a given substance to cover a measured surface area can be described by its spreading coefficient. The spreading coefficients for fluorocarbons can be expressed by the following equation:
S(o on w)=γw/a−(γw/o+γo/a)
Where S (o on w) represents the spreading coefficient; γ=interfacial tension; w/a=water/air; w/o=water/oil; and o/a=oil/air.
Fluorocarbons having spreading coefficients of at least one are particularly preferred. If the spreading coefficient is negative, the compound will tend to remain as a lens on the membrane surface. Adequate coverage of the lung surface is important for restoring oxygen and carbon dioxide transfer and for lubricating the lung surfaces to minimize further pulmonary trauma.
Each perfluorocarbon tested is provided together with its molecular weight and the specific variables that are used to calculate the spreading coefficient S (o on w). The perfluorocarbons reported are PFOB, perfluorotributylamine (FC-17), perfluorodecalin (APF-140), dimethyl perfluorodecalin (APF-175), trimethyl decalin (APF-200), perfluoroperhydrophenanthrene (APF-215), pentamethyl decalin (APF-240), and octamethyl decalin (APF-260).

[2] = Vapor pressure of fluorocarbons
[3] = test system: rabbits following lung lavage to remove endogenous surfactant; test: Partial liquid ventilation with PFOB in rabbit model of respiratory insufficiency induced by lung lavage; format: in vivo, New Zealand rabbits; conditions: rabbits after lung lavage
Method: The following examples provide information relating to the effect of PFOB treatment on respiratory insufficiency in an experimental rabbit model. The general protocol for partial liquid ventilation of the rabbits is described below.
New Zealand rabbits weighing between 2.8 and 3.0 kg were anesthetized with 50 mg/kg of […] sodium iv and a cannula was inserted through a tracheotomy midway along the trachea with its tip proximal to the carina. Ventilation with a Servo ventilator 900C (Siemens-Elema, Sweden) was initiated using pure oxygen and zero end-expiratory pressure with a constant tidal volume of 12 ml/kg, frequency of 30/min and inspiratory time of 35%. Anesthesia was maintained with additional doses of pentobarbital, as required, and pancuronium bromide was administered as an intravenous bolus (0.1 mg/kg) and followed by a continuous infusion (0.1 mg/kg/hr) for muscle paralyzation. A solution of 5% dextrose and 0.45% NaCl was administered continuously at a rate of 10 ml/kg/hr as a maintenance fluid. A heating pad maintained core temperature at 37±1° C., monitored by an esophageal thermistor (Elektroalboratoriet, Copenhagen).
Left femoral artery and vein were each cannulated with polyvinyl catheters for arterial and central venous pressure recording and blood sampling. A special indwelling catheter (Mikro-pO2-Messkatheter, Licox) was inserted into the right femoral artery for continuous oxygen pressure monitoring (Licox, GMS, Germany). Arterial blood gas and Hb (hemoglobin) measurements were made by Osm-2 Hemoximeter and ABL-330 (Radiometer Copenhagen). Lung mechanics and end-tidal CO2 were measured by means of Lung Mechanics Calculator 940 (Siemens-Elema, Sweden) and CO2 Analyzer 930 (Siemens-Elema, Sweden), respectively. Intravascular pressure monitoring was made by using a Statham P23XL transducer (Spectramed, USA) and all tracings including ECG were recorded by a Sirecust 1280 recorder (Siemens).
After the control observations were made, lung lavage with 30 ml/kg of warm saline (37° C.) was performed to induce respiratory insufficiency. After the first lavage, positive end expiratory pressure (PEEP) was increased to 6 cmH2O and lung lavages were repeated to get an arterial pO2 below 100 mmHg with the initial ventilatory settings (between 4-6 lavages). […]
After respiratory insufficiency was induced, PFOB liquid was administered through the tracheal cannula into the animal's lungs with incremental doses of 3 ml/kg up to a total volume of 15 ml/kg. Animals were ventilated for 15 minutes after each dose of PFOB instillation with the same ventillatory settings as mentioned above and thereafter arterial blood gases, cardiocirculatory parameters and pulmonary mechanics were measured. […]

pentamethyl decalin [APF-240]
γo/a (interfacial tension oil/air) [1]: 22.6 mN/m | γo/w (interfacial tension oil/water) [1]: 56.3 mN/m | S(o on w) spreading coefficient [1]: −6.9

FC1(F)C(F)(F)C(F)(F)C2(F)C(F)(F)C(F)(F)C(F)(F)C(F)(F)C2(F)C1(F)F (stereo not drawn) [APF-140, perfluorodecalin]
γo/a (interfacial tension oil/air) [1]: 18.2 mN/m | γo/w (interfacial tension oil/water) [1]: 55.3 mN/m

FC(F)(F)C(F)(F)C(F)(F)C(F)(F)C(F)(F)C(F)(F)Br [1-bromotridecafluorohexane]
vapor pressure (in words) [2]: relatively high vapor pressures

FC1(F)C(F)(F)C(F)(F)C2(F)C(F)(C1(F)F)C(F)(F)C(F)(F)C1(F)C(F)(F)C(F)(F)C(F)(F)C(F)(F)C12F (stereo not drawn) [APF-215, perfluoroperhydrophenanthrene]
γo/a (interfacial tension oil/air) [1]: 21.6 mN/m | γo/w (interfacial tension oil/water) [1]: 56.0 mN/m | S(o on w) spreading coefficient [1]: −5.6

dimethyl perfluorodecalin [APF-175]
γo/a (interfacial tension oil/air) [1]: 20.7 mN/m | γo/w (interfacial tension oil/water) [1]: 55.9 mN/m | S(o on w) spreading coefficient [1]: −4.6

FC(F)(F)C(F)(F)C(F)(F)C(F)(F)N(C(F)(F)C(F)(F)C(F)(F)C(F)(F)F)C(F)(F)C(F)(F)C(F)(F)C(F)(F)F [FC-47, perfluorotributylamine]
γo/a (interfacial tension oil/air) [1]: 17.9 mN/m | γo/w (interfacial tension oil/water) [1]: 55.1 mN/m

octamethyl decalin [APF-260]
γo/a (interfacial tension oil/air) [1]: 22.4 mN/m | γo/w (interfacial tension oil/water) [1]: 56.1 mN/m | S(o on w) spreading coefficient [1]: −6.5

FC(F)(F)C(F)(F)C(F)(F)C(F)(F)C(F)(F)C(F)(F)C(F)(F)C(F)(F)Br [PFOB, 1-bromo-heptadecafluoro-octane]
γo/a (interfacial tension oil/air) [1]: 18.0 mN/m | γo/w (interfacial tension oil/water) [1]: 51.3 mN/m | arterial oxygen pressure as percent of original (pre-lavage) value ([3]; 15 ml/kg PFOB intratracheal, n = 6): 83% | mean arterial carbon dioxide tension (in words) ([3]; after PFOB administration, post-lavage level 48.7 mmHg): decreased | mean airway pressure (in words) ([3]; increasing volumes of PFOB): decreased mean airway pressure | arterial oxygen tension (in words) ([3]; increasing volumes of PFOB 3-15 ml/kg intratracheal, compared to saline treated controls): significantly improved the arterial oxygen tension | vapor pressure ([2]; 37° C.): 14 torr

trimethyl decalin [APF-200]
γo/a (interfacial tension oil/air) [1]: 21.4 mN/m | γo/w (interfacial tension oil/water) [1]: 55.9 mN/m | S(o on w) spreading coefficient [1]: −5.3
